# Data from paper PMC6573034 (Nature Communications, 2019).
# Entries after “also recorded” stand apart in the source; their conditions may differ. Where two headings read alike, the source gives them in different places.
# T1: SfMCT (Syntrophobacter fumaroxidans, UniProt A0LNN5)
# T1 construct: expressed in transfected cells; host or cells: E. coli JA202 (MC4100 glcA::cat lldP::kan), plasmid pEXT20-SfMCT-3C-10His
# T1 sequence (A0LNN5 1-412): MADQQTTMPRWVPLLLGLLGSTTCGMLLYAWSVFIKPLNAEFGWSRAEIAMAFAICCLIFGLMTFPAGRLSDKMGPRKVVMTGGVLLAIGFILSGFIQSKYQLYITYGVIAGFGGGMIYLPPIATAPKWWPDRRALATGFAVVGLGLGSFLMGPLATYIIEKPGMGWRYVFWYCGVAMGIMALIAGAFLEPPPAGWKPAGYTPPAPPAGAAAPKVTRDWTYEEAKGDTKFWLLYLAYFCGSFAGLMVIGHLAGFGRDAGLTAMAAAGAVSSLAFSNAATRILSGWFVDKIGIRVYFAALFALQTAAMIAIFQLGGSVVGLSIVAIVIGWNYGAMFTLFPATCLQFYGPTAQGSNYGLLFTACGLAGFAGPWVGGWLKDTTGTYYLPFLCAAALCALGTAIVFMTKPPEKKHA
# B1: SfMCT (Syntrophobacter fumaroxidans MPOB) (protein)
# chain: T1 sequence (A0LNN5 1-412)
# notes: expressed in transfected cells; host or cells: E. coli JA202 (MC4100 glcA::cat lldP::kan), plasmid pEXT20-SfMCT-3C-10His
# Tests used:
# [1] = target: T1, SfMCT; format: cell-based; conditions: for competition with [14C]L-lactate uptake (in words) / reduction of [14C]L-lactate uptake: competitor 1 mM; for Relative uptake of [14C]L-lactate (in %): WT SfMCT, competitor 1 mM final concentration, normalized to control without competitor
# Procedure: (§1) The cultures were grown at 37 °C and 180 r.p.m. in an incubator shaker (Multitron, Infors HT). Protein expression was induced at OD600 ~0.5 by addition of IPTG to a final concentration of 0.25 mM. After 4 h, bacteria were pelleted (5,200 × g, 10 min, room temperature) and resuspended in uptake buffer (20 mM Bis-Tris propane-HCl (pH 6.7), 250 mM KCl) to a bacteria density of OD600 12. […] Furthermore, [3-3 H] propionic acid sodium salt ([^3H]propionate, American Radiolabeled Chemicals, specific activity 30 Ci/mmol), n-[2,3-3 H] butyric acid sodium salt ([^3H]butyrate, American Radiolabeled Chemicals, specific activity 120 Ci/mmol), and [1–14 C] pyruvic acid sodium salt ([^14C]pyruvate, specific activity 0.055 Ci/mmol American Radiolabeled Chemicals) were also used for transport experiments. […] Uptake experiments were performed in 2 ml reaction tubes (Eppendorf) at 30 °C under agitation (1,000 r.p.m., Thermomixer compact, Eppendorf). […] Bacteria were immediately pelleted by centrifugation (21,000 × g, 4 min, room temperature) and washed two times with 900 μl stop buffer. Finally, bacteria were lyzed in 50 μl 5% (w/v) sodium dodecylsulfate and transferred into a white 96-well plate (Optiplate, PerkinElmer). 150 µl of scintillation cocktail (MicroScint 40, PerkinElmer) were added before measuring each reaction for 2 min with a scintillation counter (TopCount NXT, PerkinElmer). For data analysis, the signal of the empty vector was subtracted from the transporter signal. […] Cpm values of each experiment were normalized with respect to the determined upper plateau value, i.e., the fitted upper plateau value corresponds to 100%. The arithmetic average of three independent experiments was calculated. Three independent and normalized pH-dependence curves were then averaged. For data analysis Prism6 (GraphPad Software) was used. […] Equal amounts of bacteria expressing SfMCT variants were loaded on 14% SDS/polyacrylamide gels. His-tagged transporters were detected using an anti-His5 (Qiagen, catalogue number 34660, primary antibody) at a dilution of 1:3,000 and a goat anti-mouse IgG (H + L) HRP conjugate antibody (Biorad, catalogue number 172-1011, secondary antibody) at a dilution of 1:2,500.
# [2] = target: T1, SfMCT; assay: Uptake of [14C]L-lactate and other radiolabeled monocarboxylates into SfMCT expressing E. coli JA202; format: cell-based; conditions: for Uptake of radioligand by SfMCT (cpm): 0.1 µCi radiolabeled monocarboxylate, SfMCT-overexpressing bacteria; for transport by SfMCT (in words): uptake experiment using radiolabeled compound
# Procedure: as §1
# [3] = test system: vector-transformed E. coli JA202; assay: Uptake of radioligands into vector-transformed bacteria; format: cell-based; conditions: 0.1 µCi radiolabeled monocarboxylate; vector-transformed bacteria
# Procedure: The cultures were grown at 37 °C and 180 r.p.m. in an incubator shaker (Multitron, Infors HT). Protein expression was induced at OD600 ~0.5 by addition of IPTG to a final concentration of 0.25 mM. After 4 h, bacteria were pelleted (5,200 × g, 10 min, room temperature) and resuspended in uptake buffer (20 mM Bis-Tris propane-HCl (pH 6.7), 250 mM KCl) to a bacteria density of OD600 12. […] Furthermore, [3-3 H] propionic acid sodium salt ([^3H]propionate, American Radiolabeled Chemicals, specific activity 30 Ci/mmol), n-[2,3-3 H] butyric acid sodium salt ([^3H]butyrate, American Radiolabeled Chemicals, specific activity 120 Ci/mmol), and [1–14 C] pyruvic acid sodium salt ([^14C]pyruvate, specific activity 0.055 Ci/mmol American Radiolabeled Chemicals) were also used for transport experiments. […] Uptake experiments were performed in 2 ml reaction tubes (Eppendorf) at 30 °C under agitation (1,000 r.p.m., Thermomixer compact, Eppendorf). […] Bacteria were immediately pelleted by centrifugation (21,000 × g, 4 min, room temperature) and washed two times with 900 μl stop buffer. Finally, bacteria were lyzed in 50 μl 5% (w/v) sodium dodecylsulfate and transferred into a white 96-well plate (Optiplate, PerkinElmer). 150 µl of scintillation cocktail (MicroScint 40, PerkinElmer) were added before measuring each reaction for 2 min with a scintillation counter (TopCount NXT, PerkinElmer). For data analysis, the signal of the empty vector was subtracted from the transporter signal. […] Cpm values of each experiment were normalized with respect to the determined upper plateau value, i.e., the fitted upper plateau value corresponds to 100%. The arithmetic average of three independent experiments was calculated. Three independent and normalized pH-dependence curves were then averaged. For data analysis Prism6 (GraphPad Software) was used. The expression of SfMCT variants in E. coli JA202 (MC4100 glcA::cat lldP::kan)[15] was verified by Western blotting. Equal amounts of bacteria expressing SfMCT variants were loaded on 14% SDS/polyacrylamide gels. His-tagged transporters were detected using an anti-His5 (Qiagen, catalogue number 34660, primary antibody) at a dilution of 1:3,000 and a goat anti-mouse IgG (H + L) HRP conjugate antibody (Biorad, catalogue number 172-1011, secondary antibody) at a dilution of 1:2,500.
# [4] = target: MCT1; set-up: method as in Ovens et al., 2010, Biochem. J. 425:523-30; conditions: reported value, ref Ovens et al., 2010, Biochem. J. 425:523-30; cited from earlier work
# [5] = target: T2, SfMCT-F335A (Syntrophobacter fumaroxidans, UniProt A0LNN5, F335A); assay: [14C]L-lactate transport competition assay, SfMCT-F335A; format: cell-based; conditions: competition by 1 mM ACAC
# T2 construct: expressed in transfected cells; host or cells: E. coli JA202, pEXT20-SfMCT-3C-10His mutant plasmid
# T2 sequence (A0LNN5 whole entry F335A): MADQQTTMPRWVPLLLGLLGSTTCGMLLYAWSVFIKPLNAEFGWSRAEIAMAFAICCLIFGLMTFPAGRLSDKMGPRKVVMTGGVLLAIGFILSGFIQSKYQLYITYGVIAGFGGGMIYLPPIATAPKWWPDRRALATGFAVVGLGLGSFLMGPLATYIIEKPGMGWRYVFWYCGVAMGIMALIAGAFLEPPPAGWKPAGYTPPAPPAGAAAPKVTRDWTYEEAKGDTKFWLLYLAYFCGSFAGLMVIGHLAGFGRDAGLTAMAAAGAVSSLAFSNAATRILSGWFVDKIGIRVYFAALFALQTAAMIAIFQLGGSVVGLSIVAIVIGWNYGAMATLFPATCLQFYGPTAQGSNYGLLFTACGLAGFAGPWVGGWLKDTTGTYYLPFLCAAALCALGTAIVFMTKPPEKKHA
# Procedure: The cultures were grown at 37 °C and 180 r.p.m. in an incubator shaker (Multitron, Infors HT). Protein expression was induced at OD600 ~0.5 by addition of IPTG to a final concentration of 0.25 mM. After 4 h, bacteria were pelleted (5,200 × g, 10 min, room temperature) and resuspended in uptake buffer (20 mM Bis-Tris propane-HCl (pH 6.7), 250 mM KCl) to a bacteria density of OD600 12. […] Furthermore, [3-3 H] propionic acid sodium salt ([^3H]propionate, American Radiolabeled Chemicals, specific activity 30 Ci/mmol), n-[2,3-3 H] butyric acid sodium salt ([^3H]butyrate, American Radiolabeled Chemicals, specific activity 120 Ci/mmol), and [1–14 C] pyruvic acid sodium salt ([^14C]pyruvate, specific activity 0.055 Ci/mmol American Radiolabeled Chemicals) were also used for transport experiments. […] Cpm values of each experiment were normalized with respect to the determined upper plateau value, i.e., the fitted upper plateau value corresponds to 100%. The arithmetic average of three independent experiments was calculated. […] His-tagged transporters were detected using an anti-His5 (Qiagen, catalogue number 34660, primary antibody) at a dilution of 1:3,000 and a goat anti-mouse IgG (H + L) HRP conjugate antibody (Biorad, catalogue number 172-1011, secondary antibody) at a dilution of 1:2,500.
# [6] = substrate: C[C@H](O)C(=O)O; assay: cells, lysate or membranes; format: cell-based, Syntrophobacter fumaroxidans; conditions: other: SfMCT-mediated [14C]L-lactate uptake; average of three independent saturation experiments
molecule,measurement,setting,value
"N#CC(C#N)=NNc1cccc(Cl)c1 [CCCP, carbonyl cyanide 3-chlorophenylhydrazone, reference compound]",effect on uptake of [14C]L-lactate (in words),[1]; 20 µM CCCP,completely abolished
CCCC(=O)O [butyrate],competition with [14C]L-lactate uptake (in words),[1],significantly reduced
same,Uptake of radioligand by SfMCT (cpm),[2],160.333 cpm
same,transport by SfMCT (in words),[2],not transported; also recorded: without being transported
same,Uptake of radioligand by vector (cpm),[3],197.333 cpm
C[C@@H](N)C(=O)O [D-alanine],competition with [14C]L-lactate uptake (in words),[1],absence of any competition
C[C@H](N)C(=O)O [L-alanine],competition with [14C]L-lactate uptake (in words),[1],absence of any competition
O=C(O)CC(O)(CC(=O)O)C(=O)O [citrate],reduction of [14C]L-lactate uptake,[1],5–14%
"Cc1n[nH]c(C)c1Cc1sc2c(c1C(=O)N1C[C@H](O)CO1)c(=O)n(C)c(=O)n2CC(C)C [AR-C155858, reference compound]",[14C]L-lactate uptake,"[1]; 100 µM AR-C155858, control: 100%",103%
same,Ki,[4],~2 nM
CC(=O)C(=O)O [pyruvate],Uptake of radioligand by SfMCT (cpm),[2],2342.67 cpm
same,transport by SfMCT (in words),[2],not transported; also recorded: does not transport
same,Uptake of radioligand by vector (cpm),[3],2551.22 cpm
"CC(C)[C@@H]1NC(=O)[C@H](C)OC(=O)[C@@H](C(C)C)NC(=O)[C@@H](C(C)C)OC(=O)[C@H](C(C)C)NC(=O)[C@H](C)OC(=O)[C@@H](C(C)C)NC(=O)[C@@H](C(C)C)OC(=O)[C@H](C(C)C)NC(=O)[C@H](C)OC(=O)[C@@H](C(C)C)NC(=O)[C@@H](C(C)C)OC1=O [valinomycin, reference compound]",effect on transport of [14C]L-lactate (in words),[1]; 20 µM valinomycin,no effect
CCC(=O)O [propionate],Relative uptake of [14C]L-lactate (in %),[1],58.2752%
same,competition with [14C]L-lactate uptake (in words),[1],significantly reduced
same,Uptake of radioligand by SfMCT (cpm),[2],90.6667 cpm
same,transport by SfMCT (in words),[2],not transported; also recorded: without being transported
same,Uptake of radioligand by vector (cpm),[3],198.333 cpm
O=CO [formate],Relative uptake of [14C]L-lactate (in %),[1],96.2179%
"CC(=O)CC(=O)O [ACAC, acetoacetate]",Relative uptake of [14C]L-lactate (in %),[1],86.3974%
same,Relative uptake of [14C]L-lactate (in %),[1]; listed as acetoacetate,86%
same,reduction of [14C]L-lactate uptake,[1],5–14%
same,Relative uptake of [14C]L-lactate (in %),[5],43.19%
same,Relative uptake of [14C]L-lactate (in %),[5]; listed as acetoacetate,43%
CC(=O)O [acetate],Relative uptake of [14C]L-lactate (in %),[1],90.2435%
O=C(O)CC(=O)O [malonate],Relative uptake of [14C]L-lactate (in %),[1],91.3566%
same,reduction of [14C]L-lactate uptake,[1],5–14%
O=C(O)/C=C/C(=O)O [fumarate],Relative uptake of [14C]L-lactate (in %),[1],61.3393%
"C[C@@H](O)CC(=O)O [3-HBA, (R)-3-hydroxybutyrate]",Relative uptake of [14C]L-lactate (in %),[1],93.0096%
same,reduction of [14C]L-lactate uptake,[1],5–14%
O=C(O)C(=O)O [oxalate],Relative uptake of [14C]L-lactate (in %),[1],95.2988%
same,reduction of [14C]L-lactate uptake,[1],5–14%
O=C(O)CCC(=O)O [succinate],Relative uptake of [14C]L-lactate (in %),[1],57.9601%
B1,Km,[6],233 ± 22 µM
